{
  "source": "patent US11878050B2",
  "about": "“Glycoside hydrolases to treat biofilm-associated infections” (priority 2018, dated 2024)",
  "key": {"[1]": {"tested_on": "bioluminescent P. aeruginosa", "test": "Antibiotic protection and infection clearance in vivo (IVIS)", "parameters": "species or system mice", "quoted_text": "Glycoside hydrolase and antibiotic treatments. Established infections were treated via topical application of vehicle control, heat-inactivated GH, antibiotic alone (or in combination with heat-inactivated GH), GH alone, or GH plus antibiotic (meropenem). Briefly, woundbeds were irrigated with a 10% α-amylase and cellulase (in a 1:1 combination) solution in three separate topical infusions with 30 minutes of dwell time for each, with or without antibiotics. Septicemia was determined by monitoring animals for signs of systemic illness (lethargy, loss of appetite, labored breathing, tremors), and moribund mice were euthanized via phenobarbital injection. […] In order to image dispersal in vivo, the inventors used a Lumina II XR In Vivo Imaging System (IVIS®). Mice with established wound infections were administered GH therapy, and imaging occurred immediately following treatment, and every 4-5 hours subsequently. For experiments involving systemic antibiotic therapy, peritoneal dosing of 300 mg/kg meropenem occurred 4 hours prior to, and 8 hours following GH treatment. […]\nTo test if concurrent systemic or topical antibiotics can protect against dispersal-mediated septicemia, 48-hour chronic wound infections comprised of bioluminescent P. aeruginosa were treated with 10% GH as above, and monitored via IVIS for systemic spread."}, "biofilms": {"tested_on": "biofilms", "conditions": "cited from earlier work; for Summary (biofilm-disrupting ability): Table 1, literature"}, "[2]": {"tested_on": "S. aureus and P. aeruginosa", "test": "Total CFU after GH treatment in vitro (bactericidal activity)", "assay_type": "cell-based", "conditions": "5% GH solutions, 30 minutes", "protocol": "(§1) In vitro cell dispersal. To measure percent dispersal in vitro, the wells of a 24-well non-tissue culture treated plate (Falcon®) were inoculated with 1:100 dilutions of overnight cultures of S. aureus and P. aeruginosa, and biofilms were allowed to grow for 48 hours at 37° C., with shaking at 80 rpm. Following incubation, the supernatant was removed, and each well was gently rinsed with PBS to discard any non-attached biomass. Subsequently, wells were treated with enzyme solutions, vehicle, or heat-inactivated controls. Following treatment, the supernatant was removed and centrifuged at 11,000 rcf for 10 minutes in order to pellet the cells. Cell pellets were then re-suspended in PBS for CFU quantification. Biofilm remaining on the wells were dispersed via sonication and suspended in PBS for CFU quantification. Percent bacterial cell dispersal was calculated by finding the quotient of […]."}, "[3]": {"tested_on": "S. aureus and P. aeruginosa biofilms", "test": "Crystal violet biomass assay", "assay_type": "cell-based", "protocol": "Crystal violet assay. A traditional in vitro crystal violet (CV) biomass assay was performed by inoculating the wells of a 24-well non-tissue culture treated plate (Falcon®) containing 13 mm plastic cell culture coverslips with 1:100 dilutions of overnight cultures of S. aureus and P. aeruginosa in fresh LB broth, and allowing for 48 hours of growth at 37° C., with shaking at 80 rpm. Planktonic cells were then removed via rinsing with PBS, and the biofilm-coated coverslips were treated with enzyme solutions, vehicle, or heat-inactivated controls. After treatment, the coverslips were rinsed with ddH2O, and the remaining biomass was stained with 1% CV in ddH2O for 20 minutes. Coverslips were then rinsed once more with ddH2O and transferred to fresh wells, in which the CV was eluted in 95% ethanol for 1 hour. The eluted CV from treated vs. untreated samples was quantified via absorbance of 595 nm light in a Synergy H1 Hybrid Reader (Biotek®)."}, "[4]": {"tested_on": "S. aureus and P. aeruginosa polymicrobial biofilms harvested from murine chronic wounds", "test": "Ex vivo treatment of murine chronic wound biofilms: biomass degraded", "assay_type": "cell-based", "conditions": "5% enzyme solutions, 1 hour", "source_text": "(§2) Murine chronic wound model. A murine chronic wound model has been previously described [Dalton T, Dowd S E, Wolcott R D, Sun Y, Watters C, Griswold J A, et al. An in vivo polymicrobial biofilm wound infection model to study interspecies interactions. PLoS One. 2011; 6(11):e27317. Epub 2011/11/15. Brown R L, Greenhalgh D G. Mouse models to study wound closure and topical treatment of infected wounds in healing-impaired and normal healing hosts. Wound Repair Regen. 1997; 5(2):198-204. Epub 1997/04/01. Rumbaugh K P, Diggle S P, Watters C M, Ross-Gillespie A, Griffin A S, West S A. Quorum sensing and the social evolution of bacterial virulence. Curr Biol. 2009; 19(4):341-5. Epub 2009/02/24, relevant portions incorporated herein by reference]. […] Percent dispersal, percent biomass degraded, and antibiotic tolerance were calculated as with the LWM, described above.\n(§3) In order to determine if the results obtained in vitro translated to a more clinically relevant model, the inventors tested the ability of GH solutions to degrade the biomass of, and disperse the cells from, biofilms grown in vivo. […] For analysis of biomass degradation, the inventors measured the weights of the extracted wound-beds before and after treatment with GH, and compared the percent reduction in weight to that of biofilms treated with heat-inactivated GH. […]"}, "[5]": {"tested_on": "S. aureus and P. aeruginosa biofilms", "test": "Lubbock Chronic Wound Biofilm Model (wound-like media)", "assay_type": "cell-based", "source_text": "Lubbock Chronic Wound Biofilm Model. The Lubbock Chronic Wound Biofilm Model, or Lubbock wound model (LWM), has been previously described [Sun Y, Dowd S E, Smith E, Rhoads D D, Wolcott R D. In vitro multispecies Lubbock chronic wound biofilm model. Wound Repair Regen. 2008; 16(6):805-13. Epub 2009/01/09. DeLeon S, Clinton A, Fowler H, Everett J, Horswill A R, Rumbaugh K P. Synergistic interactions of Pseudomonas aeruginosa and Staphylococcus aureus in an in vitro wound model. Infect Immun. 2014; 82(11):4718-28. Epub 2014/08/27. Dalton T, Dowd S E, Wolcott R D, Sun Y, Watters C, Griswold J A, et al. An in vivo polymicrobial biofilm wound infection model to study interspecies interactions. PLoS One. 2011; 6(11):e27317. Epub 2011/11/15, relevant portions incorporated herein by reference]. Briefly, wound-like media (50% bovine plasma, 45% Bolton broth, 5% laked horse blood) was inoculated with […] bacterial cells, and incubated for 48 hours, statically, at 37° C. […] Percent bacterial cell dispersal was calculated by finding the quotient of […]. Percent biomass degraded was calculated by rinsing to remove the post-treatment supernatant, weighing the remaining biomass, and finding the quotient of the post-treatment biofilm weight divided by the pre-treatment biofilm weight. […]"}, "[6]": {"tested_on": "S. aureus and P. aeruginosa biofilms", "test": "In vitro well-plate cell dispersal assay", "assay_type": "cell-based", "conditions": "5% GH solutions, 30 minutes, vs vehicle and heat-inactivated controls", "protocol": "as §1"}, "[7]": {"tested_on": "S. aureus and P. aeruginosa polymicrobial biofilms harvested from murine chronic wounds", "test": "Ex vivo treatment of murine chronic wound biofilms: cell dispersal", "assay_type": "cell-based", "conditions": "5% enzyme solutions, 1 hour, vs vehicle and heat-inactivated controls", "source_text": "as §2, §3"}},
  "data": [
    {"compound": "C[C@@H](O)[C@H]1C(=O)N2C(C(=O)O)=C(S[C@@H]3CN[C@H](C(=O)N(C)C)C3)[C@H](C)[C@H]12", "note": "[meropenem]", "values": [
      {"measurement": "protection against GH dispersal-induced dissemination", "setting": "[1]; systemic meropenem (300 mg/kg) with 10% GH", "result": "prevented dissemination of P. aeruginosa"},
      {"measurement": "protection against GH dispersal-induced dissemination", "setting": "[1]; topical meropenem (3 mg/ml) with 10% GH", "result": "prevented dissemination of P. aeruginosa"}
    ]},
    {"compound": "Hyaluronidase [reference compound]", "values": [
      {"measurement": "Summary (biofilm-disrupting ability)", "setting": "biofilms", "result": "against HA-containing biofilms, dispersal"}
    ]},
    {"compound": "cellulase", "values": [
      {"measurement": "total CFU (supernatant + biofilm), bactericidal activity", "setting": "[2]", "result": "no bactericidal activity"},
      {"measurement": "degradation of pre-formed biofilms (crystal violet)", "setting": "[3]; 0.0025%, 10 minutes", "result": "significantly degraded"},
      {"measurement": "biomass of the biofilms (retention of crystal violet stain)", "setting": "[3]; 0.25% GH solution, 30 minutes, 48 h biofilms", "result": "significant reduction in biomass"},
      {"measurement": "percent biomass degraded", "setting": "[4]", "result": "able to degrade"},
      {"measurement": "disassociation of biofilms cultured in wound-like media", "setting": "[5]; 10%, 1 hour, 24-hour-old polymicrobial biofilms", "result": "completely disassociates"},
      {"measurement": "percent dispersal", "setting": "[6]", "result": "significant amount of dispersal"},
      {"measurement": "Summary (biofilm-disrupting ability)", "setting": "biofilms", "result": "shown to cause the dispersal of S. aureus"},
      {"measurement": "biofilm inhibition / disruption in earlier studies", "setting": "biofilms; literature", "result": "inhibits biofilm growth by Burkholderia cepacia and Pseudomonas aeruginosa"},
      {"measurement": "percent dispersal", "setting": "[7]", "result": "significantly more total cell dispersal"}
    ]},
    {"compound": "gentamicin sulfate [reference compound]", "values": [
      {"measurement": "cells remaining viable after gentamicin treatment", "setting": "[5]; P. aeruginosa and S. aureus co-cultured in the LWM, gentamicin alone", "result": "approximately half"}
    ]}
  ]
}
